Experiment [1] deals with T1, CPT II WT (Homo sapiens, UniProt P23786).
T1 construct: made in house; host or cells: Escherichia coli BL21Gold DE
T1 sequence (P23786 26-658): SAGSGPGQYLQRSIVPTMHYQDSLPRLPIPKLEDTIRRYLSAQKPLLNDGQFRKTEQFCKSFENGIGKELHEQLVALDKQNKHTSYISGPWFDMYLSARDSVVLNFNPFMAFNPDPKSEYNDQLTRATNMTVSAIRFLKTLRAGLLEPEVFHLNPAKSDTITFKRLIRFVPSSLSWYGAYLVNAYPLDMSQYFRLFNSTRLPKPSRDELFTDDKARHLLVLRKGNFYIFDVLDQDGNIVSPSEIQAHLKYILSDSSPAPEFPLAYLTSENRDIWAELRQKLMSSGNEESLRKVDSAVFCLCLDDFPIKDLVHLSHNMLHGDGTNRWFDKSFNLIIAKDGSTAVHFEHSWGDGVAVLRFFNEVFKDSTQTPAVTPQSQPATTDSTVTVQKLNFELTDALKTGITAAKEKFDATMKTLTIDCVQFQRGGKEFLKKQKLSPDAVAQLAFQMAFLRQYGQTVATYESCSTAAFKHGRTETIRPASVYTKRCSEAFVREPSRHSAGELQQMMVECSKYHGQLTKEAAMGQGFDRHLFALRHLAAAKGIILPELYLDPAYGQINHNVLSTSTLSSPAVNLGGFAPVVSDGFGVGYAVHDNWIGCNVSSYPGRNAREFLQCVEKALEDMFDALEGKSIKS
Briefly: nanoDSF protein stability in presence of CL or β-OG. The format is binding. How it is done:
(§1) NanoDSF is a standard method for the investigation of the folding/unfolding of proteins and the interaction of proteins with effectors/ligands/substrates
(§2) The protein stability was investigated applying nano differential scanning fluorimetry (nanoDSF) using a protein concentration of 1 mg/mL in assay buffer. […] The heating rate has been set to 1 °C per min. A heating ramp from 15 to 95 °C was determined. The nanoDSF data were obtained using a Prometheus NT.48 device. First derivatives were calculated using PR.ThermControl software (NanoTemper Technologies GmbH, Munich, Germany). Experiments were performed at least three times independently as double determination.
Background: DSF heats the sample and reads unfolding from a dye or from intrinsic fluorescence.

Experiment [2] concerns the target T2, CPT II variant P50H (Homo sapiens, UniProt P23786, P50H).
T2 construct: made in house; host or cells: Escherichia coli BL21Gold DE
T2 sequence (P23786 26-658 P50H): T1 sequence (P23786 26-658) with P25H
The description is as above. The format is binding. As to conditions: 1 mg/mL protein. As to the method:
as §1, §2

For experiment [3], the target named is T3, CPT II variant S113L (Homo sapiens, UniProt P23786, S113L).
T3 construct: made in house; host or cells: Escherichia coli BL21Gold DE
T3 sequence (P23786 26-658 S113L): T1 sequence (P23786 26-658) with S88L
The experiment is described as above. In kind it is binding. How it is done: as §1, §2

The target of experiment [4] is T4, CPT II variant Y479F (Homo sapiens, UniProt P23786, Y479F).
T4 construct: made in house; host or cells: Escherichia coli BL21Gold DE
T4 sequence (P23786 26-658 Y479F): T1 sequence (P23786 26-658) with Y454F
The experiment is described as above. In kind it is binding. As to the method:
as §1, §2

For experiment [5], the target named is T1, CPT II WT. Briefly: Lipid binding assay (membrane lipid strips). As to conditions: 0.4 mg enzyme, 100 pmol lipid spots. How it is done:
(§3) Direct interaction of CPT II WT and variants with phospholipids of the mitochondrial membrane was assessed using membrane lipid strips (Echelon Biosciences, Salt Lake City, Utah, USA). The membrane was spotted with 100 pmol of various cell membrane lipids. The assay was performed following manufacturer’s instructions with some modifications explained in the following. At first, the membrane was washed twice in phosphate buffered saline (PBS). After 1 h incubation with blocking solution (3% BSA fatty acid-free in PBS) at room temperature, the membrane was incubated with purified CPT II WT or variant (final amount 0.4 mg protein) for 2 h at 4 °C. After three washing steps, a-His-Probe (H3) mouse monoclonal antibody (Santa Cruz Biotech, Santa Cruz, CA, USA, 1:1000 dilution in PBS containing 3% BSA) was added to the membrane over night at 4 °C. The membrane was washed three times with PBS and incubated with mouse IgG horseradish peroxidase-linked whole antibody (from sheep, Amersham, Little Chalfont, Buckinghamshire, UK) for 1 h at 4 °C. The interaction was visualized by ECL Western blotting detection reagents (Amersham, Little Chalfont, Buckinghamshire, UK).

The target in experiment [6] is T2, CPT II variant P50H. Briefly: Lipid binding assay (membrane lipid strips). As to conditions: 0.4 mg enzyme, 100 pmol lipid spots. How it is done: as §3
For experiment [7], the target named is T3, CPT II variant S113L. Briefly: Lipid binding assay (membrane lipid strips). The note with it: 0.4 mg enzyme, 100 pmol lipid spots. As to the method: as §3
Experiment [8] concerns the target T4, CPT II variant Y479F. Briefly: Lipid binding assay (membrane lipid strips). The note with it: 0.4 mg enzyme, 100 pmol lipid spots. As to the method:
as §3

Where [9] appears, read: reference TM of WT in buffer (ΔTM = 0 °C).

Changes are numbered by the printed parent chain.

Regarding `CCCCCCCCO[C@@H]1O[C@H](CO)[C@@H](O)[C@H](O)[C@H]1O` [β-OG, n-octyl-β-d-glucopyranoside], the “TM in Buffer with 1 % β-OG” value in experiment [1] (1 mg/mL protein) was determined as 49.9 ± 0.7 °C; in experiment [2], 43.5 ± 0.4 °C; in experiment [3] (1 mg/mL protein), 45.3 ± 0.6 °C; in experiment [4] (1 mg/mL protein), 49.0 ± 0.5 °C. The “∆TM in Buffer with 1 % β-OG” value in experiment [1] (setting [9]) is 13.0 ± 0.7 °C; in experiment [3] (setting [9]), 8.4 ± 0.6 °C; in experiment [4] (setting [9]), 12.1 ± 0.5 °C.
On to “phosphatidylinositol (4,5)-bisphosphate [PtdIns(4,5)P2]”, for which the “Signal for interaction on membrane lipid strips” value (from here on “Signal for interaction”) in experiment [5], in experiment [6], in experiment [7] and in experiment [8] was “highest signal” each time.
“phosphatidylinositol (3,4,5)-trisphosphate [PtdIns(3,4,5)P3]”: the “Signal for interaction” value in experiment [5], in experiment [6], in experiment [7] and in experiment [8] was “highest signal” throughout.
Turning to phosphatidylglycerol [PG], the “Signal for interaction” value in experiment [6] and in experiment [7] was “lower detection signal” throughout.
Take phosphatidylserine [PS]: the “Signal for interaction” value in experiment [6] is “reduced”.
In the case of phosphatidylinositol [PI], the “Signal for interaction” value is “interaction with PI was detected” in experiment [5], “No signal” in experiment [6], “interaction with PI was detected” in experiment [7] and “interaction with PI was detected” in experiment [8].

The record behind these values is article PMC8125234, “Cardiolipin Stabilizes and Increases Catalytic Efficiency of Carnitine Palmitoyltransferase II and Its Variants S113L, P50H, and Y479F” (International Journal of Molecular Sciences, 2021).
